Assay: pharmacological and clinical studies (summary statements)
Type: in vivo
Settings: presence of R-citalopram
Excerpt: This may be shown in functional in-vivo pharmacological models and studies of 5-HT-reuptake effect and or in behaviour models, for example depression models.

CN(C)CCC[C@]1(c2ccc(F)cc2)OCc2cc(C#N)ccc21 [R-citalopram]
impact on the effect of escitalopram: negative impact on the effect of escitalopram
